# Data from PubChem BioAssay AID248 (DTP/NCI, 2004).
# Several values for one entry are separate records, joined by “and”; a condition that tells them apart may be missing. Equal entries are not always repeated. Toxic doses and inconclusive results are not listed.
# Tested on: L1210 leukemia ip in BDF1 mice, survival T/C
# Assay: NCI In Vivo Anticancer Drug Screen. Data for tumor model L1210 Leukemia (intraperitoneal) in B6D2F1 (BDF1) mice
# Details: endpoint: mean survival time, higher = longer survival
# Procedure, shortened: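 Read-out is survival time, reported as the treated-group measurement over the vehicle-control measurement.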
# [1] = dose: 100.0 mg/kg/injection, schedule: Q01DX001 (ip), vehicle: carboxymethylcellulose (CMC)
# [2] = dose: 100.0 mg/kg/injection, schedule: Q01DX001 (ip), vehicle: saline
# [3] = dose: 200.0 mg/kg/injection, schedule: Q01DX001 (ip), vehicle: saline
# [4] = dose: 400.0 mg/kg/injection, schedule: Q01DX001 (ip), vehicle: carboxymethylcellulose (CMC)
# [5] = dose: 400.0 mg/kg/injection, schedule: Q01DX001 (ip), vehicle: saline
# [6] = dose: 100.0 mg/kg/injection, schedule: Q01DX001 (ip), vehicle: Klucel (hydroxypropylcellulose) (HPC)
# [7] = dose: 100.0 mg/kg/injection, schedule: Q04DX003 (ip), vehicle: Klucel (hydroxypropylcellulose) (HPC)
# [8] = dose: 200.0 mg/kg/injection, schedule: Q01DX001 (ip), vehicle: Klucel (hydroxypropylcellulose) (HPC)
# [9] = dose: 200.0 mg/kg/injection, schedule: Q04DX003 (ip), vehicle: Klucel (hydroxypropylcellulose) (HPC)
# [10] = dose: 400.0 mg/kg/injection, schedule: Q04DX003 (ip), vehicle: Klucel (hydroxypropylcellulose) (HPC)
# [11] = dose: 100.0 mg/kg/injection, schedule: Q01DX009 (ip), vehicle: saline
# [12] = dose: 100.0 mg/kg/injection, schedule: Q04DX003 (ip), vehicle: saline
# [13] = dose: 200.0 mg/kg/injection, schedule: Q01DX009 (ip), vehicle: saline
# [14] = dose: 200.0 mg/kg/injection, schedule: Q04DX003 (ip), vehicle: saline
# [15] = dose: 400.0 mg/kg/injection, schedule: Q01DX009 (ip), vehicle: saline
# [16] = dose: 400.0 mg/kg/injection, schedule: Q04DX003 (ip), vehicle: saline
# [17] = dose: 50.0 mg/kg/injection, schedule: Q01DX001 (ip), vehicle: Klucel (hydroxypropylcellulose) (HPC)
# [18] = dose: 50.0 mg/kg/injection, schedule: Q01DX009 (ip), vehicle: Klucel (hydroxypropylcellulose) (HPC)
# [19] = dose: 100.0 mg/kg/injection, schedule: Q01DX009 (ip), vehicle: Klucel (hydroxypropylcellulose) (HPC)
smiles,measurement,setting,value
CS(=O)(=O)Oc1nn2c(OS(C)(=O)=O)nnc2s1,T/C,"dose: 5.0 mg/kg/injection, schedule: Q01DX001 (ip), vehicle: saline",104 % of control
same,T/C,"dose: 8.8 mg/kg/injection, schedule: Q01DX001 (ip), vehicle: saline",101 % of control and 90 % of control
same,T/C,"dose: 10.0 mg/kg/injection, schedule: Q01DX001 (ip), vehicle: saline",109 % of control
same,T/C,"dose: 13.3 mg/kg/injection, schedule: Q01DX001 (ip), vehicle: saline",98 % of control and 110 % of control
same,T/C,"dose: 20.0 mg/kg/injection, schedule: Q01DX001 (ip), vehicle: saline",98 % of control and 104 % of control
same,T/C,"dose: 30.0 mg/kg/injection, schedule: Q01DX001 (ip), vehicle: saline",104 % of control
S=c1nc[nH]c2c1ncn2CN1CCOCC1,T/C,"dose: 30.0 mg/kg/injection, schedule: Q01DX015 (ip), vehicle: saline",119 % of control
same,T/C,"dose: 42.0 mg/kg/injection, schedule: Q01DX009 (ip), vehicle: carboxymethylcellulose (CMC)",118 % of control
same,T/C,"dose: 80.0 mg/kg/injection, schedule: Q01DX015 (ip), vehicle: saline",153 % of control
same,T/C,[1],112 % of control
same,T/C,[2],110 % of control
same,T/C,"dose: 120.0 mg/kg/injection, schedule: Q01DX009 (ip), vehicle: carboxymethylcellulose (CMC)",168 % of control
same,T/C,"dose: 135.0 mg/kg/injection, schedule: Q01DX015 (ip), vehicle: saline",152 % of control
same,T/C,"dose: 177.0 mg/kg/injection, schedule: Q01DX001 (ip), vehicle: saline",152 % of control
same,T/C,[3],122 % of control
same,T/C,"dose: 200.0 mg/kg/injection, schedule: Q01DX009 (ip), vehicle: carboxymethylcellulose (CMC)",91 % of control
same,T/C,"dose: 266.0 mg/kg/injection, schedule: Q01DX001 (ip), vehicle: saline",163 % of control
same,T/C,[4],164 % of control and 166 % of control
same,T/C,[5],152 % of control
same,T/C,"dose: 600.0 mg/kg/injection, schedule: Q01DX001 (ip), vehicle: saline",152 % of control
COC(=O)C1C(c2ccc(-c3ccccc3)cc2)N1C1CCCCC1 (configuration not stated),T/C,[6],96 % of control
same,T/C,[7],104 % of control
same,T/C,[8],95 % of control
same,T/C,[9],107 % of control
same,T/C,"dose: 400.0 mg/kg/injection, schedule: Q01DX001 (ip), vehicle: Klucel (hydroxypropylcellulose) (HPC)",93 % of control
same,T/C,[10],98 % of control
CC(C)(C)C1CCC(S(C)(=O)=O)C(Cl)C1 (configuration not stated),T/C,[11],110 % of control
same,T/C,[12],102 % of control
same,T/C,[13],106 % of control
same,T/C,[14],96 % of control
same,T/C,[15],102 % of control
same,T/C,[16],105 % of control
COc1ccc(CN2CCCN(Cc3ccc(OC)cc3OC)C2c2ccc(OC)cc2OC)c(OC)c1,T/C,"dose: 50.0 mg/kg/injection, schedule: Q01DX001 (ip), vehicle: carboxymethylcellulose (CMC)",93 % of control
same,T/C,[1],104 % of control
same,T/C,"dose: 200.0 mg/kg/injection, schedule: Q01DX001 (ip), vehicle: carboxymethylcellulose (CMC)",93 % of control
same,T/C,[4],98 % of control
Cc1ccccc1N=Nc1c(O)n(-c2ccccc2Cl)c(=S)n(-c2ccccc2)c1=O,T/C,[17],98 % of control
same,T/C,[6],100 % of control
same,T/C,[8],96 % of control
COC(=O)CC(C)=S.[Ni],T/C,"dose: 50.0 mg/kg/injection, schedule: Q01DX001 (ip), vehicle: saline",98 % of control
same,T/C,[2],98 % of control
same,T/C,[3],98 % of control
same,T/C,[5],117 % of control
O=NN(CCCl)C(=O)NC1CCS(=O)(=O)CC1,T/C,"dose: 6.0 mg/kg/injection, schedule: Q01DX001 (ip), vehicle: carboxymethylcellulose (CMC)",228 % of control
same,T/C,"dose: 7.5 mg/kg/injection, schedule: Q01DX001 (ip), vehicle: carboxymethylcellulose (CMC)",313 % of control
same,T/C,"dose: 8.0 mg/kg/injection, schedule: Q01DX001 (ip), vehicle: carboxymethylcellulose (CMC)",235 % of control
same,T/C,"dose: 11.4 mg/kg/injection, schedule: Q01DX001 (ip), vehicle: carboxymethylcellulose (CMC)",337 % of control
same,T/C,"dose: 12.0 mg/kg/injection, schedule: Q01DX001 (ip), vehicle: carboxymethylcellulose (CMC)",211 % of control and 319 % of control
same,T/C,"dose: 17.0 mg/kg/injection, schedule: Q01DX001 (ip), vehicle: carboxymethylcellulose (CMC)",337 % of control
same,T/C,"dose: 18.0 mg/kg/injection, schedule: Q01DX001 (ip), vehicle: carboxymethylcellulose (CMC)",319 % of control
same,T/C,"dose: 37.0 mg/kg/injection, schedule: Q01DX001 (ip), vehicle: carboxymethylcellulose (CMC)",93 % of control and 105 % of control
Clc1cnc(C(Cl)(Cl)Cl)c(Cl)n1 (tested in a mixture with another compound),T/C,"dose: 12.5 mg/kg/injection, schedule: Q01DX009 (ip), vehicle: Klucel (hydroxypropylcellulose) (HPC)",94 % of control
same,T/C,"dose: 25.0 mg/kg/injection, schedule: Q01DX009 (ip), vehicle: Klucel (hydroxypropylcellulose) (HPC)",97 % of control
same,T/C,[18],100 % of control
N=C(N)c1ccncc1,T/C,[12],104 % of control
same,T/C,[14],104 % of control
same,T/C,[16],107 % of control
N=C(N)SC(c1ccccc1)c1ccccc1,T/C,"dose: 25.0 mg/kg/injection, schedule: Q01DX001 (ip), vehicle: Klucel (hydroxypropylcellulose) (HPC)",97 % of control
same,T/C,[17],104 % of control
same,T/C,[6],101 % of control
same,T/C,[2],98 % of control
O=C(O)[C@@H]1C[C@@H](O)CN1,T/C,[2],87 % of control
same,T/C,[3],100 % of control
same,T/C,[5],94 % of control
CN(C)c1ccc(C=C2c3ccccc3-c3ccccc32)cc1,T/C,[7],97 % of control
same,T/C,[9],96 % of control
same,T/C,[10],94 % of control
CCN(CC)CCNc1ccc(N=Nc2cnc3ccccc3c2)c2ccccc12,T/C,"dose: 1.12 mg/kg/injection, schedule: Q01DX009 (ip), vehicle: other",98 % of control
same,T/C,"dose: 2.25 mg/kg/injection, schedule: Q01DX009 (ip), vehicle: other",92 % of control
same,T/C,"dose: 4.5 mg/kg/injection, schedule: Q01DX009 (ip), vehicle: other",93 % of control
same,T/C,"dose: 9.0 mg/kg/injection, schedule: Q01DX009 (ip), vehicle: other",97 % of control
same,T/C,"dose: 100.0 mg/kg/injection, schedule: Q01DX001 (ip), vehicle: other",91 % of control
same,T/C,"dose: 200.0 mg/kg/injection, schedule: Q01DX001 (ip), vehicle: other",91 % of control
same,T/C,"dose: 400.0 mg/kg/injection, schedule: Q01DX001 (ip), vehicle: other",97 % of control
NCCc1ccc(S(=O)(=O)O)cc1[N+](=O)[O-],T/C,[19],96 % of control
same,T/C,[7],98 % of control
same,T/C,"dose: 200.0 mg/kg/injection, schedule: Q01DX009 (ip), vehicle: Klucel (hydroxypropylcellulose) (HPC)",89 % of control
same,T/C,[9],94 % of control
same,T/C,[10],98 % of control
CC(O)CCc1ccccc1 (configuration not stated),T/C,"dose: 100.0 mg/kg/injection, schedule: Q01DX009 (ip), vehicle: saline with Tween-80",100 % of control
same,T/C,"dose: 200.0 mg/kg/injection, schedule: Q01DX009 (ip), vehicle: saline with Tween-80",89 % of control
same,T/C,"dose: 400.0 mg/kg/injection, schedule: Q01DX009 (ip), vehicle: saline with Tween-80",88 % of control
FC(F)(F)c1ccc2c(c1)C1c3ccccc3C2c2ccccc21,T/C,[11],98 % of control
same,T/C,[12],100 % of control
same,T/C,[13],100 % of control
same,T/C,[14],98 % of control
same,T/C,[15],91 % of control
same,T/C,[16],100 % of control
C=CC[Se]c1nc(N)nc2c1ncn2C1OC(CO)C(O)C1O (configuration not stated),T/C,"dose: 12.5 mg/kg/injection, schedule: Q01DX005 (ip), vehicle: saline",104 % of control
same,T/C,"dose: 25.0 mg/kg/injection, schedule: Q01DX005 (ip), vehicle: saline",100 % of control
NC(=O)c1ccccc1OC(=O)Nc1ccccc1,T/C,[18],103 % of control
same,T/C,[19],101 % of control
same,T/C,"dose: 100.0 mg/kg/injection, schedule: Q04DX002 (ip), vehicle: Klucel (hydroxypropylcellulose) (HPC)",89 % of control
same,T/C,"dose: 200.0 mg/kg/injection, schedule: Q04DX002 (ip), vehicle: Klucel (hydroxypropylcellulose) (HPC)",99 % of control
Nc1nc2ncc(C(=O)O)nc2c(=O)[nH]1,T/C,"dose: 50.0 mg/kg/injection, schedule: Q04DX003 (ip), vehicle: saline",98 % of control
same,T/C,[12],97 % of control and 104 % of control
same,T/C,[16],105 % of control
